# Test system: E. coli
# Assay: Impedance-based rapid detection of metabolic deviations (sensitivity testing) of a biological sample containing E. coli
# Assay type: cell-based
# Source text: There is shown in FIG. 1, system 10 for rapid detection of metabolic deviations of a biological sample of this invention. System 10 includes control chamber 12 which receives biological sample 14 via fluidic channel 15. Control chamber 12 also includes spaced electrodes 16 and 18 which are used to measure the impedance of biological sample 14 disposed in control chamber 12, as discussed in further detail below. Biological sample 14 may be blood, urine, sputum, feces, spinal fluid, food, water, a solution containing one or more microbial organisms, or any other biological sample known to those skilled in the art. The microbial organisms in biological sample 14 may include any biological cell, such as Escherichia coli, Staphylococcus aureus, Enterococcus faecalis, Streptococcus pneumoniae, Neisseria gonorrhoeae, Mycobacterium tuberculosis, Saccharomyces cerevisiae, or any other microbial organism known to those skilled in the art. […]
# System 10 includes measuring and detection device 28 connected to electrodes 16 and 18 of control chamber 12 by lines 29 and 31 and electrodes 24 and 26 of target chamber 22 by lines 33 and 35. […] Measuring and detection device 28 then compares the measured second impedances to the measured first impedances to determine if biological reagent 20 has induced any metabolic deviations to biological sample 14 in target chamber 22. […]
smiles,measurement,setting,value
CCn1cc(C(=O)O)c(=O)c2cc(F)c(N3CCNCC3)cc21 [Norfloxacin],time at which sensitivity of the biological sample to the biological reagent is detected,FIG. 7 dashed line 404,about 40 minutes
same,sensitivity of the biological sample to the biological reagent,"measured impedance response vs control sample, FIG. 7 curve 402 vs curve 400",sensitive
